{"source": "patent US10308592B2", "about": "(priority 2014, dated 2019)", "key": {"rat [1]": {"tested_on": "rat", "details": "in vivo"}, "rat [2]": {"tested_on": "rat", "details": "in vivo; cited from earlier work"}, "male Sprague-Dawley rats": {"tested_on": "male Sprague-Dawley rats", "details": "rat, in vivo"}, "[3]": {"details": "male, Sprague-Dawley, rat"}, "in vivo": {"experiment": "in vivo", "details": "rat, po, 300 mg/kg"}, "rats": {"tested_on": "rats", "details": "rat, in vivo, po, 300 mg/kg"}, "mouse [4]": {"tested_on": "mouse", "details": "in vivo; cited from earlier work"}, "mouse [5]": {"tested_on": "mouse", "details": "in vivo, inhaled or intranasal"}}, "note": "Where two headings read alike, the source gives them in different places.", "data": [{"smiles": "COC(F)(F)C(F)C(F)(F)F", "note": "(centres unmarked) [301-monohydride, CF3CFHCF2OCH3]", "values": [{"measurement": "LC50 (LD50) data - inhalation", "setting": "rat [1]", "value": "LC50 >10,000 ppm"}, {"measurement": "NOAEL/NOEL data: NOAEL by inference", "setting": "rat [1]; inhaled or intranasal", "value": "<10,000 ppm (rat"}]}, {"smiles": "FC(F)C(F)(F)OCC(F)(F)F", "note": "[AE-3000, CF3CH2OCF2CF2H]", "values": [{"measurement": "LC50 (LD50) data - inhalation", "setting": "rat [2]", "value": "LC50 3010 ppm"}]}, {"smiles": "COC(F)(F)C(F)N1C(F)(F)C(F)(F)OC(F)(F)C1(F)F", "note": "(centres unmarked) [Example 1, 2,2,3,3,5,5,6,6-octafluoro-4-(1,2,2-trifluoro-2-methoxy-ethyl)morpholine]", "values": [{"measurement": "LC50 (LD50) data - inhalation", "setting": "male Sprague-Dawley rats; male, Sprague-Dawley", "value": "LC50 >5000 ppm"}, {"measurement": "4 hour LC-50", "setting": "male Sprague-Dawley rats", "value": "> 5000 ppm (v/v)"}, {"measurement": "Clinical observations, body or organ weight effects", "setting": "male Sprague-Dawley rats", "value": "no significant clinical observations or body or organ weight effects were noted"}, {"measurement": "Survival and appearance during 14 day post dose recovery period", "setting": "male Sprague-Dawley rats", "value": "All animals survived and appeared normal"}, {"measurement": "NOAEL (No Observable Adverse Effect Level)", "setting": "male Sprague-Dawley rats; inhaled or intranasal", "value": "> 5000 ppm (v/v)"}, {"measurement": "NOAEL/NOEL data: NOEL", "setting": "male Sprague-Dawley rats; inhaled or intranasal", "value": "NOEL >5000 ppm"}, {"measurement": "chromatographic logP", "setting": "physchem", "value": 4.46}, {"measurement": "Acute Vapor Hazard Ratio", "setting": "[3]", "value": 4}]}, {"smiles": "FC(F)C(F)(F)COC(F)(F)C(F)N1C(F)(F)C(F)(F)OC(F)(F)C1(F)F", "note": "(centres unmarked) [Example 2, 2,2,3,3,5,5,6,6-octafluoro-4-[1,2,2-trifluoro-2-(2,2,3,3-tetrafluoropropoxy)ethyl]morpholine]", "values": [{"measurement": "LD50", "setting": "in vivo", "value": "> 300", "unit": "mg/kg"}, {"measurement": "Adverse clinical observations during post dose recovery period", "setting": "rats", "value": "No adverse clinical observations were noted"}, {"measurement": "Necropsy results", "setting": "rats", "value": "normal for all animals"}]}, {"smiles": "CC(OC(F)(F)C(F)C(F)(F)F)C(F)(F)C(F)C(F)(F)F", "note": "(centres unmarked) [Novec 7600, CF3CFHCF2CH(CH3)OCF2CFHCF3]", "values": [{"measurement": "NOAEL/NOEL data: NOEL", "setting": "rat [1]; inhaled or intranasal", "value": 29, "unit": "d) <500 ppm"}]}, {"smiles": "COC(F)(F)C(C(F)(F)F)C(F)(F)F", "note": "[OIME, (CF3)2CHCF2OCH3]", "values": [{"measurement": "LC50 (LD50) data - inhalation", "setting": "mouse [4]", "value": "LC50 660 ppm"}, {"measurement": "NOAEL/NOEL data: NOAEL by inference", "setting": "mouse [5]", "value": "<660 ppm (mouse,"}]}]}
